Laboratory results as given in ChEMBL document CHEMBL1201862, “PubChem BioAssay data set” (2004).
Activity calls are given as the source filed them.

What was measured:
[1] = molecular target: T1, Alkaline phosphatase, tissue-nonspecific isozyme (Homo sapiens, UniProt P05186)
T1 sequence (P05186 whole entry): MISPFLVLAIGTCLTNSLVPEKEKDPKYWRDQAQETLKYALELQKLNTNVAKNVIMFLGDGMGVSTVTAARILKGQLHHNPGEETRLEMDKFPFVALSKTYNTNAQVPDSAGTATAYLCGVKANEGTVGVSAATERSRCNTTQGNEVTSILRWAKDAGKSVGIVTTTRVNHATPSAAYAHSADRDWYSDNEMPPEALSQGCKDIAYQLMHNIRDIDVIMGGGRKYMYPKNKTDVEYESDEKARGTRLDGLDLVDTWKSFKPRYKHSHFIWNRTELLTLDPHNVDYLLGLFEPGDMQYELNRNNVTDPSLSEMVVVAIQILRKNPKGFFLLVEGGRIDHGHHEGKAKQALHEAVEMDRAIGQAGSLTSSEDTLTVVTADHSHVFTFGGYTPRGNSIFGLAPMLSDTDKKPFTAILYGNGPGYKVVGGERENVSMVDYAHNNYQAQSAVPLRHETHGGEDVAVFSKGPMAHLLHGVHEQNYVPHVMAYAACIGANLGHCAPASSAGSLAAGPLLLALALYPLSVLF

[2] = HEK-293T viability loss after treatment – luminescence, T-cell screen hits, cytotoxicity control for TCR NF-kB inhibitor project, dose response (AID 489026); type: functional, cell-based;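 note: cells exposed to compound about 14 hours before the viability readout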
[3] = molecular target: T2, Eukaryotic translation initiation factor 2-alpha kinase 3 (Homo sapiens, UniProt Q9NZJ5); experiment: Dose response cell-based high-throughput screening assay to measure PERK inhibition. [Related pubchem assays: 1416 ]; type: functional
[4] = molecular target: T2, Eukaryotic translation initiation factor 2-alpha kinase 3; experiment: Counterscreen assay for PERK inhibitors: Dose response cell-based high throughput screening assay to measure inhibition of PERK at 6 hours. [Related pubchem assays: 1522, 1416 ]; type: functional
[5] = A cytotoxicity screen of small molecule inhibitors of the PhoP region in Salmonella typhi identified in the primary screen. [Related pubchem assays: 1850, 1864, 1985 ]; type: functional
INS1 = experiment: INS-1E survival protection against cytokine death – cell-based, luminescence, retest, dose response (AID 449756); type: functional; conditions: Rattus norvegicus;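 note: cell death triggered by IL-1 beta plus TNF-alpha plus IFN-gamma mixture; protective hits raise ATP signal compared with cytokine alone wells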
[6] = molecular target: T3, Luciferin 4-monooxygenase (Photinus pyralis, UniProt P08659); experiment: Counter Screen for Luciferase-based Assay Positives. [Related pubchem assays: 620, 618, 411 ]
HEK293 [7] = experiment: PMA/Ionomycin induced NF-kB luciferase assay in 293- NF-kB-Luc stable cells. [Related pubchem assays: 1299, 1270, 1295, 1375, 1287, 1281, 1293, 1291, 1289, 1280, 465, 1364, 1282, 1372, 1365, 1370, 1367, 1366, 1269, 1373, 1292, 1290, 1302, 1371, 1283, 1271, 1294, 1374, 1368, 1369 ]; type: functional, cell-based; conditions: Homo sapiens
[8] = molecular target: T3, Luciferin 4-monooxygenase; experiment: In vitro luciferase assay using purified luciferase. [Related pubchem assays: 1299, 1270, 1295, 1375, 1287, 1281, 1293, 1291, 1289, 1280, 465, 1364, 1282, 1372, 1365, 1370, 1367, 1366, 1266, 1373, 1292, 1290, 1302, 1371, 1283, 1271, 1294, 1374, 1368, 1369 ]
[9] = molecular target: Glyceraldehyde-3-phosphate dehydrogenase (Homo sapiens, UniProt P04406)
HEK293 [10] = experiment: PMA/Ionomycin-induced IL-8 production in HEK293- NF-kB-Luc stable cells. [Related pubchem assays: 1299, 1295, 1375, 1287, 1281, 1293, 1291, 1289, 1280, 465, 1364, 1282, 1372, 1365, 1367, 1366, 1266, 1269, 1373, 1292, 1290, 1302, 1371, 1283, 1271, 1294, 1374, 1368, 1369 ]; type: functional, cell-based; conditions: Homo sapiens
[11] = Luminescence-based counterscreen assay for KLF5 inhibitors: dose response cell-based high throughput screening assay to identify cytotoxic compounds using the IEC-6 intestinal epithelial cell line. [Related pubchem assays: 1700 (Primary screen.), 1834 (Confirmation screen.), 1858 (Summary AID.), 1905 (Counterscreen.)]; type: functional
HT-1080 = experiment: HT1080 cell viability loss – fluorescence readout (AID 620); type: functional, cell-based; conditions: Homo sapiens
HEK293 [12] = experiment: Cytotoxicity assay in HEK293 cells. [Related pubchem assays (depositor defined):AID1266, AID1269, AID1270, AID1271, AID1280, AID1281, AID1282, AID1283, AID1287, AID1289, AID1290, AID1291, AID1292, AID1293, AID1294, AID1295, AID1299, AID1302, AID1364, AID1365, AID1366, AID1367, AID1369, AID1370, AID1371, AID1372, AID1373, AID1374, AID1375, AID1384 …; type: functional, cell-based; conditions: Homo sapiens
HEK293 [13] = experiment: TNF Induced NF-kB Luciferase in 293-NF-kB-Luc Stable Cells. [Related pubchem assays: 1266, 1299, 1269, 1373, 1292, 1290, 1302, 1371, 1283, 1270, 1295, 1271, 1375, 1294, 1374, 1281, 1293, 1291, 1289, 1280, 465, 1368, 1364, 1282, 1372, 1365, 1369, 1370, 1367, 1366 ]; type: functional, cell-based; conditions: Homo sapiens
[14] = blockers of HIV-1 envelope-mediated cell-cell fusion – cherry-pick, dose response (AID 652057); type: functional, cell-based
[15] = blockers of HIV-1 ZM109 envelope-driven cell-cell fusion – HeLa effector, CEM target cells, luciferase, cherry-pick, dose response (AID 652058); type: functional, cell-based;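 note: luciferase signal from HIV-1 Env mediated cell-cell fusion of effector and target cells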
[16] = off-target signal loss in HeLa-CEM21 co-culture – HeLa F-luc CTL cells, cherry-picked, counter-screen for HIV-1 Env fusion inhibitor project, dose response (AID 652040); type: functional, cell-based;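 note: potency for signal decrease marking cytotoxic or nonspecific inhibition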
[17] = HIV-1 AD8 envelope cell-cell fusion blockers – cherry-pick, dose response (AID 652062); type: functional, cell-based;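 note: luciferase signal from cell-cell fusion driven by HIV-1 clade B AD8 Env; potency is for inhibitors of fusion seen as a drop in luminescence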
Protein Tat = Protein Tat (Human immunodeficiency virus type 1 group M subtype B (isolate HXB2)(HIV-1), UniProt P04608); type: functional;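 note: tat binding to TAR RNA read out by fluorescence polarization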
[18] = mRNA 3' processing disruption, beta-gal signal increase – luminescence, S. cerevisiae SKY197-pL101, dose response (AID 2525); type: functional, cell-based
[19] = yeast viability loss, SKY197-pL101 strain – Alamar Blue fluorescence, MIC, counter-screen for polyadenylation inhibitor project, dose response (AID 2693); type: functional; conditions: Saccharomyces cerevisiae
Large T antigen = Large T antigen (Simian virus 40, UniProt P03070); type: functional, Betapolyomavirus macacae;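 note: Confirmatory-stage PubChem screen for compounds that inhibit SV40 T antigen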
[20] = Luminescence Cell-Based Dose Confirmation HTS to Identify Inhibitors of Polyadenylation.; type: functional

T2 sequence (Q9NZJ5 whole entry): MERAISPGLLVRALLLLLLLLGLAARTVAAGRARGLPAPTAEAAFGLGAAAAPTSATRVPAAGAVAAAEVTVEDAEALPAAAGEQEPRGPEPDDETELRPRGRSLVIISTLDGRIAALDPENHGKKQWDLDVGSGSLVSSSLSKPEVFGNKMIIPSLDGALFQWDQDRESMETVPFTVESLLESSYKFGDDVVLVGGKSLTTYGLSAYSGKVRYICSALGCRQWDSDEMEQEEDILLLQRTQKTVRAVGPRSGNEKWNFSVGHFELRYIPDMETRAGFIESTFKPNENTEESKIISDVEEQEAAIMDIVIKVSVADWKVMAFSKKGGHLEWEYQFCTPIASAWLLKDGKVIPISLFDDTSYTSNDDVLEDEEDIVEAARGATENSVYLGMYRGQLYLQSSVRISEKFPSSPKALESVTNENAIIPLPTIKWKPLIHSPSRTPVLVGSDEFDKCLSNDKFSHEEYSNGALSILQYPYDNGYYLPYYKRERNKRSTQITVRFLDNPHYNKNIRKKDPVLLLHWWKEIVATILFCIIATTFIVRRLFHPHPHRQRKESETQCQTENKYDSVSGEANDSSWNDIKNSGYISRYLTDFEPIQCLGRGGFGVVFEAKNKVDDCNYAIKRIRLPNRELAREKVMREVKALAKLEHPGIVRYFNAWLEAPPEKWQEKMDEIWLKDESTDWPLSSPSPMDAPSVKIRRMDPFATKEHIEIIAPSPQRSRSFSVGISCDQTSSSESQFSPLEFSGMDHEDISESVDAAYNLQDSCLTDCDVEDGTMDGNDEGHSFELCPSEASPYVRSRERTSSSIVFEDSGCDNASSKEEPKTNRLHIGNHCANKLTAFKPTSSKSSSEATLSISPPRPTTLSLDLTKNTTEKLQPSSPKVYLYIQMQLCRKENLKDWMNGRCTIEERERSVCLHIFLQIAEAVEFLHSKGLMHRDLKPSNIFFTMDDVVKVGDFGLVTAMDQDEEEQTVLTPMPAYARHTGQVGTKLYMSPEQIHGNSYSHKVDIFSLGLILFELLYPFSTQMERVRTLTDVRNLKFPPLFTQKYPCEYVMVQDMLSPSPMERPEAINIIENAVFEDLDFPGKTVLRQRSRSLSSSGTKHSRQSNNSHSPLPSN
T3 sequence (P08659 whole entry): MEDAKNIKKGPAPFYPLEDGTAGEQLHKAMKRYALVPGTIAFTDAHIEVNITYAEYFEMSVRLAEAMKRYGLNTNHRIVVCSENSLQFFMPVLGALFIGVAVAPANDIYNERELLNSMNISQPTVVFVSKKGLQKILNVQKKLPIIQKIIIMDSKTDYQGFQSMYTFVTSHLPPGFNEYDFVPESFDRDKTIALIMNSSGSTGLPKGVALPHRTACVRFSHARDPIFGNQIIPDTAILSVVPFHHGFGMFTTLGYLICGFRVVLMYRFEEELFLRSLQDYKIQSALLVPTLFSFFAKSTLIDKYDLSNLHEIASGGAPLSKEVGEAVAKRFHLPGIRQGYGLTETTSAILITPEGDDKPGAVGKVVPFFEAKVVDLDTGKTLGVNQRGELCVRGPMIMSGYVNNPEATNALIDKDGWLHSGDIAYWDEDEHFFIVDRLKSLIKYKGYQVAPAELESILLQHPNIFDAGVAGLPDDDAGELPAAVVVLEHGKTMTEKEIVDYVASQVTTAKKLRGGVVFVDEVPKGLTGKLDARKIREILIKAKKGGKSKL
Sequence of Protein Tat (P04608 whole entry): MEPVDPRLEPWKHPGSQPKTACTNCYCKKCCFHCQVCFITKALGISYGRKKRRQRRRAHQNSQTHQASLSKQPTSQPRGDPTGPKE
Sequence of Large T antigen (P03070 whole entry): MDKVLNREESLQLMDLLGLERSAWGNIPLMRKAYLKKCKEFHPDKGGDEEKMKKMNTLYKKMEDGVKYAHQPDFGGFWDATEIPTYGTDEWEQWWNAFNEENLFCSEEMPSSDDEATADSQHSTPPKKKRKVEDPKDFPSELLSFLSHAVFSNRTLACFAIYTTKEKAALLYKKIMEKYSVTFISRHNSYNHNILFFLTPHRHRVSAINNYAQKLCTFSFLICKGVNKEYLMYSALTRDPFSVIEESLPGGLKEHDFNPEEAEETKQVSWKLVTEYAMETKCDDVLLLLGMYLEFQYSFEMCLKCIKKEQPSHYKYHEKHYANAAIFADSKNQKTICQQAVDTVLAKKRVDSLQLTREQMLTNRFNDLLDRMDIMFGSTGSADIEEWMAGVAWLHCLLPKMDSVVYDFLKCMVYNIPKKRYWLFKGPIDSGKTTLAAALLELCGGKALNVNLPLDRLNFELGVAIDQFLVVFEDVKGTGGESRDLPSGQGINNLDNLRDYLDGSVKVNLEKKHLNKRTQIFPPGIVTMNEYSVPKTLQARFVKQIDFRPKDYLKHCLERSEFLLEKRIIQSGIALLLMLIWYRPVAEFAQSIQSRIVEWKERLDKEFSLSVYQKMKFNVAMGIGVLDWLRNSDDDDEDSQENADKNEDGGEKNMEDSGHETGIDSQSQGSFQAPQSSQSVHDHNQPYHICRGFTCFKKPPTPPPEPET
Sequence of Glyceraldehyde-3-phosphate dehydrogenase (P04406 whole entry): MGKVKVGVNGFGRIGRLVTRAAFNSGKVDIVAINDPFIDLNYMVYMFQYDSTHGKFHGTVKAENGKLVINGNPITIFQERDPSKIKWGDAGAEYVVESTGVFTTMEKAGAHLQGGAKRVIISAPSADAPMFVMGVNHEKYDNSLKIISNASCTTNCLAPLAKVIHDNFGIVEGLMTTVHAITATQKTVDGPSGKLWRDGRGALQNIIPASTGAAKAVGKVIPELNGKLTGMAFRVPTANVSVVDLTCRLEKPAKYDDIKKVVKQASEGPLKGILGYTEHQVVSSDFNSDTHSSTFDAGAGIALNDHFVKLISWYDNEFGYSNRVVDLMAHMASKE

In the case of CCOC(=O)c1ccc2nc(Nc3nc4ccc(F)cc4s3)sc2c1, the EC50 [1] is reported as 33.6 µM (active) and the IC50 [2] is reported as > 80 µM (inactive).
For COCCNC(=O)c1cnn2c(O)cc(C3CCN(C(=O)OC(C)(C)C)CC3)nc12, the EC50 [3] was > 55.7 µM (not active) and the EC50 [4] was > 55.7 µM (not active).
With O=C(c1ccc2c(c1)nc(S)n1c3ccccc3nc21)N1CCN(c2cccc(Cl)c2)CC1 the EC50 [5] was > 50 µM (active) and the AC50 (INS1) was 8.62 µM (active).
In the case of Cc1cc(C(=O)CN2C(=O)c3ccccc3S2(=O)=O)c(C)n1CC1CCCO1 (centres undefined), the EC50 [6] is reported as 1.17 µM (active), the EC50 (HEK293 [7]) is reported as 0.456 µM (active) and the EC50 [8] is reported as > 8 µM (not active). The IC50 [9] was > 100 µM (not active), the EC50 (HEK293 [10]) was > 8 µM (not active) and the IC50 [11] was > 39.8 µM (not active). The EC50 (HT-1080) was > 50 µM (not active), the EC50 (HEK293 [12]) was 8.14 µM (inactive) and the EC50 (HEK293 [13]) was 6.87 µM (not active). For the same compound, the AC50 [14] was 0.287 µM (active), the AC50 [15] was 1.35 µM (active) and the AC50 [16] was 0.407 µM (active). For the same compound, the AC50 [17] was 0.445 µM (active) and the IC50 (Protein Tat) was > 100 µM (active).
With COc1cc(/C=C2\SC(=S)N(NC(=O)c3cccnc3)C2=O)ccc1O the EC50 [18] was 103 µM (active), the MIC [19] was > 37 µM (inconclusive) and the IC50 (Large T antigen) was 8.49 µM (active). The EC50 [20] was 9.9 µM (active).
